The numbers were not newly measured in US20100069398A1, “Combination therapy” (priority 2004, published 2010), which cites them from elsewhere.

This data set deals with tumour models. The settings on record: once-daily oral administration, range of models.

Turning to `COc1cc2c(Nc3ccc(Br)cc3F)ncnc2cc1OCC1CCN(C)CC1` [ZD6474, 4-(4-bromo-2-fluoroanilino)-6-methoxy-7-(1-methylpiperidin-4-ylmethoxy)quinazoline], the anti-tumour activity result is “broad-spectrum anti-tumour activity”.
